Assay [1] deals with F-4 (DNA, hairpin) ATGGCCGGCCGGAAAAACCGGCCGGCCAT
Briefly: MST instrument, initial fluorescence, Hill model. As to conditions: Na+ (25 mM NaCl); 80 mM HEPES; 1 μM DNA; low 10^–5 M; fluorescence decrease ascribed to DNA condensation.

For assay [2], the system named is poly[d(A-T)2] (DNA, polymer) AT. The experiment in a line: ethidium bromide displacement (fluorescence). As to conditions: 12.5 μM EtBr displaced, 12.5 μM DNA, 1 h, per base.
For assay [3] the test system is unchanged. The experiment in a line: limited-bound ethidium bromide fluorescence quenching, Hill model. As to conditions: Na+ (40 mM NaCl); 80 mM HEPES pH 7.2; 5 μM EtBr, 25 μM DNA; EtBr fluorescence quenched; per base.
Assay [4] relates to FRET-2 (DNA, hairpin) GCATTATAATGCAAAAAGCATTATAATGC
Briefly: fluorescence (FRET) melting, Bard equation. As to conditions: 1.0 μM DNA; r = 0–10; derived from Tm fraction bound; 37 °C pre-incubation.

The subject of assay [5] is FRET-1 (DNA, hairpin) CGCGAATTCGCGAAAAACGCGAATTCGCG
Briefly: fluorescence (FRET) melting. As to conditions: 7 μM compound (r = 7), 1.0 μM DNA; control Tm 74.9 °C.

Assay [6] relates to FRET-4 (DNA, hairpin) ATGGCCGGCCGGAAAAACCGGCCGGCCAT
Briefly: fluorescence (FRET) melting. The note with it: 10 μM compound (r = 10), 1.0 μM DNA; control Tm 83.0 °C; condensation; +1.21 °C at r = 2.5.

The test system of assay [7] is F-3 (DNA, hairpin) ATCGGCGCCGATAAAAAATCGGCGCCGAT
The experiment in a line: MST instrument, initial fluorescence, Hill model. As to conditions: Na+ (25 mM NaCl); 80 mM HEPES; 1 μM DNA; low 10^–5 M; fluorescence decrease ascribed to DNA condensation.

The test system of assay [8] is FRET-3 (DNA, hairpin) ATCGGCGCCGATAAAAAATCGGCGCCGAT
Briefly: fluorescence (FRET) melting. As to conditions: 10 μM compound (r = 10), 1.0 μM DNA; control Tm 79.7 °C; condensation; +0.48 °C at r = 2.

The test system of assay [9] is F-2 (DNA, hairpin) GCATTATAATGCAAAAAGCATTATAATGC
The experiment in a line: MST instrument, initial fluorescence, Hill model. The note with it: Na+ (25 mM NaCl); 80 mM HEPES; 1 μM DNA; fluorescence decrease ascribed to DNA condensation.

The subject of assay [10] is FRET-2 (DNA, hairpin) GCATTATAATGCAAAAAGCATTATAATGC
The experiment in a line: fluorescence (FRET) melting. The note with it: 10 μM compound (r = 10), 1.0 μM DNA; control Tm 61.5 °C.

The subject of assay [11] is F-1 (DNA, hairpin) CGCGAATTCGCGAAAAACGCGAATTCGCG
Briefly: MST instrument, initial fluorescence, Hill model. As to conditions: Na+ (25 mM NaCl); 80 mM HEPES; 1 μM DNA; low 10^–5 M; fluorescence decrease ascribed to DNA condensation.

Assay [12] deals with poly[d(G-C)2] (DNA, polymer) GC. Briefly: ethidium bromide displacement (fluorescence). As to conditions: 12.5 μM EtBr displaced, 12.5 μM DNA, 1 h, per base.
The test system is the same in assay [13]. The experiment in a line: limited-bound ethidium bromide fluorescence quenching, Hill model. The note with it: Na+ (40 mM NaCl); 80 mM HEPES pH 7.2; 5 μM EtBr, 25 μM DNA; EtBr fluorescence quenched; per base.
The subject of assay [14] is FRET-1 (DNA, hairpin) CGCGAATTCGCGAAAAACGCGAATTCGCG
Briefly: fluorescence (FRET) melting, Bard equation. As to conditions: 1.0 μM DNA; r = 0–7; derived from Tm fraction bound; 37 °C pre-incubation.

Where [15] appears, read: apparent, complex prepared in situ, Kapp = Kb × 12.6/C50.

One may read the EC50 as the concentration that produces a half-maximal response. Turning to `O=[N+]([O-])[O-].O=[N+]([O-])[O-].O=[N+]([O-])[O-].O=[N+]([O-])[O-].[Cu+2].[Cu+2].c1cnc2c(c1)cc(-n1cc(CCCCc3cn(-c4cc5cccnc5c5ncccc45)nn3)nn1)c1cccnc12`, the EC50 in assay [1] was 11.25 µM; in assay [7] it was 11.39 µM; in assay [9], 9.2 × 10^–6 M; in assay [11], 11.92 µM. The C50 is given as 3.911 µM in assay [2] and 6.318 µM in assay [12]. Moreover, the Kapp amounted to 2.84e+07 M⁻¹ in assay [2] (setting [15]) and 1.75e+07 M⁻¹ in assay [12] (setting [15]). The entries for the “Q (EC50)” value in assay [3] and in [13] were 11.18 µM and 12.86 µM, respectively. Also, the Kb in [4] came to 4.38e+08 M⁻¹; in [14] it was 1.06e+07 M⁻¹. The “Δ TM” value was “+ 4.5 °C” in assay [5], “- 6.3 °C” in [6], “- 3.7 °C” in [8] and “+ 3.6 °C” in assay [10].

(Values after publication PMC11705080 (2025).)
